Reference: ChEMBL document CHEMBL1909046, “DrugMatrix in vitro pharmacology data”

Experiments:
[1] = molecular target: Mitogen-activated protein kinase 3 (Homo sapiens, UniProt P27361); assay: DRUGMATRIX: Protein Serine/Threonine Kinase, ERK1 enzyme inhibition (substrate: Myelin Basic Protein); design: species or system Escherichia coli; details: Not Active = under 50% inhibition at 10 µM
[2] = DRUGMATRIX: GABAA, Muscimol, Central radioligand binding (ligand: [3H] Muscimol); format: cell membranes, Rattus norvegicus, Wistar, Brain, Membrane; details: Not Active = under 50% inhibition at 10 µM
[3] = molecular target: T1, Neuropeptide Y receptor type 1 (Homo sapiens, UniProt P25929); format: cell membranes, Membrane; details: sk-n-mc; further: in other assays of this panel Not Active means under 50% inhibition at 10 µM
T1 sequence (P25929 whole entry): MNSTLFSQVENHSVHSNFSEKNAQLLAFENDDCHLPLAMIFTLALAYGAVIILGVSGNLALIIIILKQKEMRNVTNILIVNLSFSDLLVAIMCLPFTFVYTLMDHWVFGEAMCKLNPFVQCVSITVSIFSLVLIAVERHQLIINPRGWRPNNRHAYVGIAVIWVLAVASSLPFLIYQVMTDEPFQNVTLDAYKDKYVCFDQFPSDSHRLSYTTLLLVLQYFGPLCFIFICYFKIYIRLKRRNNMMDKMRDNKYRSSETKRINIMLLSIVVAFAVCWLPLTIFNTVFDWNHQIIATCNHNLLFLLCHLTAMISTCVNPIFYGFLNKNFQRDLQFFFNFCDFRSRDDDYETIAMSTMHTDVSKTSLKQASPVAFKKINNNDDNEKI

Cytochrome P450 2A6 = molecular target: T2, Cytochrome P450 2A6 (Homo sapiens, UniProt P11509); details: bti-tn-5b1-4; further: in other assays of this panel Not Active means under 50% inhibition at 10 µM
T2 sequence (P11509 whole entry): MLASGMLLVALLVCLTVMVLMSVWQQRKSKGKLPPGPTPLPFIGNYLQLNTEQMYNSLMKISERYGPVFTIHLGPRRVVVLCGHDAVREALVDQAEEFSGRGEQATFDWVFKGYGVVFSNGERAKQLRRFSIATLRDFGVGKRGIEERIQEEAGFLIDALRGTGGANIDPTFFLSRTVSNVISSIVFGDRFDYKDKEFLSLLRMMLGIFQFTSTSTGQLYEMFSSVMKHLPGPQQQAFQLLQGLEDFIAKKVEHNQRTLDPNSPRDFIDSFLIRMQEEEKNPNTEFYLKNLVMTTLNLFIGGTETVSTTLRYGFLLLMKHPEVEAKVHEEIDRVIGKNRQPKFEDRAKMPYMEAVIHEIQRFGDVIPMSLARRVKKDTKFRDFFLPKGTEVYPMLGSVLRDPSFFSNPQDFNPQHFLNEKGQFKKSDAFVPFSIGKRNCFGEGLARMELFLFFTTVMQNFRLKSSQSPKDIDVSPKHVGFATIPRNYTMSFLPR

[4] = molecular target: T3, Angiotensin-converting enzyme (Oryctolagus cuniculus, UniProt P12822); format: tissue-based, Lung;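 further: enzymatic inhibition of angiotensin-converting enzyme measured with FAPGG as the substrate; in other assays of this panel Not Active means under 50% inhibition at 10 µM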
T3 sequence (P12822 whole entry): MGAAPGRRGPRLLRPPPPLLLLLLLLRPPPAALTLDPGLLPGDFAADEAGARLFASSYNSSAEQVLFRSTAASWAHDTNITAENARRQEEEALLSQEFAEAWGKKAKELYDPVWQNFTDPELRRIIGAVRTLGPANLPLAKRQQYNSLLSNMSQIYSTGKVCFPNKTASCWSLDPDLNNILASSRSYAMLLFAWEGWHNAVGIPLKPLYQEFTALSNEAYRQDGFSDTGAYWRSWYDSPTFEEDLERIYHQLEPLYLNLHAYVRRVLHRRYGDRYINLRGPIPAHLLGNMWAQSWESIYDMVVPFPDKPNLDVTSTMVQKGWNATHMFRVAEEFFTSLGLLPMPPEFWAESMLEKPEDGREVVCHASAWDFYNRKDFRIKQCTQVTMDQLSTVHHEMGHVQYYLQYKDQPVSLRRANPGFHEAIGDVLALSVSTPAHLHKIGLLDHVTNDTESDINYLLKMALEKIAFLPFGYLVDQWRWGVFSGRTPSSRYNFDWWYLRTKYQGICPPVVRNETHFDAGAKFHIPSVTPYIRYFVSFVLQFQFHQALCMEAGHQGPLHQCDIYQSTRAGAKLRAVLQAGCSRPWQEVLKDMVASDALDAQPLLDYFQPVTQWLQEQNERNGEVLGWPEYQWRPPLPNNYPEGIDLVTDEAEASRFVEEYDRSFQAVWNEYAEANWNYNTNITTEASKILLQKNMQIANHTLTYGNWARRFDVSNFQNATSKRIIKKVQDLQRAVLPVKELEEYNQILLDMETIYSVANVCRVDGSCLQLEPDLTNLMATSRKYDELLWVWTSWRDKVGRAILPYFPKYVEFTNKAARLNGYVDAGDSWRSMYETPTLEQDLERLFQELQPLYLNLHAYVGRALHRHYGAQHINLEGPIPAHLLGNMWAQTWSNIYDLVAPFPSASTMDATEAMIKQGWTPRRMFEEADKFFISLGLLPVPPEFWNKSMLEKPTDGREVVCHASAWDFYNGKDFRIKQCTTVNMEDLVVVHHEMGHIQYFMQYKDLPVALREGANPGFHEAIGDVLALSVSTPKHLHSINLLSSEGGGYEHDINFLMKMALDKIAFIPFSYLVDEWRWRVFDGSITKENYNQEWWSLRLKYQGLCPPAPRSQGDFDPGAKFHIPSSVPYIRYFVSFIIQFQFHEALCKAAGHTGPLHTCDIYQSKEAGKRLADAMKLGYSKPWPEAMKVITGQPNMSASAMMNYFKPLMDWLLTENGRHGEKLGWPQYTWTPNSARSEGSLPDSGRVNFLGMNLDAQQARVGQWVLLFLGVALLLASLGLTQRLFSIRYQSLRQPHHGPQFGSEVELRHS

[5] = molecular target: 5-hydroxytryptamine receptor 1B (Rattus norvegicus, UniProt P28564); format: cell membranes, Wistar, Cerebral cortex, Membrane; further: in other assays of this panel Not Active means under 50% inhibition at 10 µM
Chain of 5-hydroxytryptamine receptor 1B (P28564 whole entry): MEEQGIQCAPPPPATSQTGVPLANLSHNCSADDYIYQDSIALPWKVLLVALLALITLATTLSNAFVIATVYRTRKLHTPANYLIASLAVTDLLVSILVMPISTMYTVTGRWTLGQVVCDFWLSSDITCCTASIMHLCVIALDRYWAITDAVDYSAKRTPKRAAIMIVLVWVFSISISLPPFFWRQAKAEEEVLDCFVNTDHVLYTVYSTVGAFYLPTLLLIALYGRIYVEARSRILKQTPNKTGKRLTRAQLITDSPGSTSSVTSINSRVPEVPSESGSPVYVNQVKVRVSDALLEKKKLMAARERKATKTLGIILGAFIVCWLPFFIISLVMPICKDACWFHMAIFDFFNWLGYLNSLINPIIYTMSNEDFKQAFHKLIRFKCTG

Insulin receptor = Insulin receptor (Rattus norvegicus, UniProt P15127); format: cell membranes, Wistar, Liver, Membrane; further: in other assays of this panel Not Active means under 50% inhibition at 10 µM
Chain of Insulin receptor (P15127 27-759 limits assumed): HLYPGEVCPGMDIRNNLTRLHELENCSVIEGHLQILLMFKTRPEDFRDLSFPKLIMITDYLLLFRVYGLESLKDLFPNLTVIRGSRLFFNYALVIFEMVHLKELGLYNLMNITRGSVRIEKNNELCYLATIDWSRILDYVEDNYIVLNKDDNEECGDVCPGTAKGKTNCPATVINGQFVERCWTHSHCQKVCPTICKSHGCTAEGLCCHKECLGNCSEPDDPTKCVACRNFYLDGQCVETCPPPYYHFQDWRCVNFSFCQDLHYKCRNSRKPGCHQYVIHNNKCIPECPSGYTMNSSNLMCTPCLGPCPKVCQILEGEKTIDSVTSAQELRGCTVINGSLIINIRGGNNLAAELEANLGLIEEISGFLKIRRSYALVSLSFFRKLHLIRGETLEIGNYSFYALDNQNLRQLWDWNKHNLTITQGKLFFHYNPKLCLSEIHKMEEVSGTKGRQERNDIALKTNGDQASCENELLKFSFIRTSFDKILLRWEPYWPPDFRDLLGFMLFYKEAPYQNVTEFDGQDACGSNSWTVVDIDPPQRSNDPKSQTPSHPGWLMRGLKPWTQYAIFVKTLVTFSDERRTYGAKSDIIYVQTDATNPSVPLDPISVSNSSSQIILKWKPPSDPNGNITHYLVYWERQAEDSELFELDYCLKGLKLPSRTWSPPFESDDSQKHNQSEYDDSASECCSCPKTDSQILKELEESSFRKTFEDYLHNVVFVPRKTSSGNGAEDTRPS
Chain of Insulin receptor (P15127 764-1383 limits assumed): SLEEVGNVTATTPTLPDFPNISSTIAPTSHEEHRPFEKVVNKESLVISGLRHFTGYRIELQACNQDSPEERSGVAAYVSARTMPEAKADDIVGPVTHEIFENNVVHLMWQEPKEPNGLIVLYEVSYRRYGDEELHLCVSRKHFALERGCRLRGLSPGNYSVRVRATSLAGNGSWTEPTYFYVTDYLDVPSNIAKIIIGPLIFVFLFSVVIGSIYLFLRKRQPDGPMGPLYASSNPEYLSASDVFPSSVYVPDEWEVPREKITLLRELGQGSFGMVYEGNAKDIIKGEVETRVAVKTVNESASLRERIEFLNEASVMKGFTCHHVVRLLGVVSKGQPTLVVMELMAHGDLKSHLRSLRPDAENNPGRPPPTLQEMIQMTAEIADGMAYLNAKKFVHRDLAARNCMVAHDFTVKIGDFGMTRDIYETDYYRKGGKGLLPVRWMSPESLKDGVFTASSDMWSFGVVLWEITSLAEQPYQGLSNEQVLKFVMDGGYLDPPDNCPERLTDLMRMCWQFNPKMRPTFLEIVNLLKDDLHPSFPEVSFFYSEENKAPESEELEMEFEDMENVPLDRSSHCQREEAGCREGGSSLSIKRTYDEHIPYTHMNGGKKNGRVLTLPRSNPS

[6] = molecular target: T4, 5-hydroxytryptamine receptor 1A (Rattus norvegicus, UniProt P19327); format: cell membranes, CHO-K1, Membrane; details: cho-k1; further: in other assays of this panel Not Active means under 50% inhibition at 10 µM
T4 sequence (P19327 whole entry): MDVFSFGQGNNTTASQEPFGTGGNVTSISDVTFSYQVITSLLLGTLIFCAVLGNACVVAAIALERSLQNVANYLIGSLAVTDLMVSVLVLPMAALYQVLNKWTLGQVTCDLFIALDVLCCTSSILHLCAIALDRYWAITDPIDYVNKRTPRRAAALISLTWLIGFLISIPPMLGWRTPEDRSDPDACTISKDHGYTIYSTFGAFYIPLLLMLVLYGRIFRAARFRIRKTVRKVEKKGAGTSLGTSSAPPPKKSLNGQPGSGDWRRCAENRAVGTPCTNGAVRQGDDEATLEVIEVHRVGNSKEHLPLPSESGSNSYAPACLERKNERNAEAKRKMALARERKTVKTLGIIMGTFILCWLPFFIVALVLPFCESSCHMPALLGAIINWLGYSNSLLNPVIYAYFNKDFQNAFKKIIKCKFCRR

Chain of Mitogen-activated protein kinase 3 (P27361 whole entry): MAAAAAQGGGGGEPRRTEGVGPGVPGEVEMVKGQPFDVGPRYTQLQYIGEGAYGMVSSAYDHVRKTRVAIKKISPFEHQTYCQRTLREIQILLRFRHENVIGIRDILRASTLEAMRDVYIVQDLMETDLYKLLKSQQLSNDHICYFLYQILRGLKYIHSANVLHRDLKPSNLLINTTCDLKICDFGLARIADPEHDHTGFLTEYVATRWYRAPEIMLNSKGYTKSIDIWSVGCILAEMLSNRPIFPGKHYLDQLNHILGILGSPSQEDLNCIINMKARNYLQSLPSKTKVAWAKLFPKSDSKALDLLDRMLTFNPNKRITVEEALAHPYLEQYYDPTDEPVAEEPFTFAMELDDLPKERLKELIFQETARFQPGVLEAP

NCCCCCC(=O)O [AMINOCAPROIC ACID]
Not Active: IC50 [1] | IC50 [2] | Ki [2] | IC50 [3] | IC50 (Cytochrome P450 2A6) | Ki (Cytochrome P450 2A6) | IC50 [4] | IC50 [5] | IC50 (Insulin receptor) | IC50 [6]

CCC1(c2ccc(N)cc2)CCC(=O)NC1=O (stereo unspecified) [AMINOGLUTETHIMIDE]
Not Active: IC50 [1] | IC50 [2] | Ki [2] | IC50 [3] | IC50 (Cytochrome P450 2A6) | Ki (Cytochrome P450 2A6) | IC50 [4] | IC50 [5] | IC50 (Insulin receptor) | IC50 [6]

Cc1ccc(/N=C/N(C)/C=N/c2ccc(C)cc2C)c(C)c1 [AMITRAZ]
Not Active: IC50 [1] | IC50 [2] | Ki [2] | IC50 [3] | IC50 (Cytochrome P450 2A6) | Ki (Cytochrome P450 2A6) | IC50 [4] | IC50 [5] | IC50 (Insulin receptor) | IC50 [6]

CCOC(=O)C1=C(COCCN)NC(C)=C(C(=O)OC)C1c1ccccc1Cl (stereo unspecified) [AMLODIPINE]
Not Active: IC50 [1] | IC50 [2] | Ki [2] | IC50 [3] | IC50 (Cytochrome P450 2A6) | Ki (Cytochrome P450 2A6) | IC50 [4] | IC50 [5] | IC50 (Insulin receptor) | IC50 [6]

COc1ccc(C[C@H]2NC[C@H](O)[C@H]2OC(C)=O)cc1 [ANISOMYCIN]
Not Active: IC50 [1] | Ki [1] | IC50 [2] | Ki [2] | IC50 [3] | Ki [3] | IC50 (Cytochrome P450 2A6) | Ki (Cytochrome P450 2A6) | IC50 [4] | Ki [4] | IC50 [5] | Ki [5] | IC50 (Insulin receptor) | Ki (Insulin receptor) | IC50 [6] | Ki [6]

Nc1ncn([C@@H]2O[C@H](CO)[C@@H](O)[C@H]2O)c(=O)n1 [AZACITIDINE]
Not Active: IC50 [1] | IC50 [2] | Ki [2] | IC50 [3] | IC50 (Cytochrome P450 2A6) | Ki (Cytochrome P450 2A6) | IC50 [4] | IC50 [5] | IC50 (Insulin receptor) | IC50 [6]

CN(C)C(=O)Oc1cc(OC(=O)N(C)C)cc(C(O)CNC(C)(C)C)c1 (stereo unspecified) [BAMBUTEROL]
Not Active: IC50 [1] | IC50 [2] | Ki [2] | IC50 [3] | IC50 (Cytochrome P450 2A6) | Ki (Cytochrome P450 2A6) | IC50 [4] | IC50 [5] | IC50 (Insulin receptor) | IC50 [6]

c1ccc2c(c1)c1cccc3ccc4cccc2c4c31 [BENZO[E]PYRENE]
Not Active: IC50 [1] | IC50 [2] | Ki [2] | IC50 [3] | IC50 (Cytochrome P450 2A6) | Ki (Cytochrome P450 2A6) | IC50 [4] | IC50 [5] | IC50 (Insulin receptor) | IC50 [6]
